Source: US20120149080A1, “YEAST PRODUCTION CULTURE FOR THE PRODUCTION OF BUTANOL” (Butamax(TM) Advanced Biofuels LLC, priority 2010, published 2012)

Columns and labels:
[1] = tested on: Saccharomyces cerevisiae BY4743; experiment: 24 hour survival (CFU) at low and high cell density; format: cell-based
Experimental: Saccharomyces cerevisiae BY4743 (ATCC 201390) was plated from a freezer vial onto YPD agar (Teknova, Hollister, Calif.; Cat. #Y1000) and incubated overnight at 30° C. Cells from the YPD plate were inoculated into a 25 ml pre-culture of YPD broth (Teknova; Cat. #Y5000) with an initial OD600 of 0.06 to 0.08. The pre-culture was grown for 7 hours in an aerobic shaker at 30° C. An aliquot of the pre-culture was inoculated into 200 ml of YPD broth, with an initial OD600 of 0.06 to 0.08, and this culture was incubated with aeration at 30° C. for approximately 17 hours. The optical density of the culture was measured, the culture was centrifuged and the cells were resuspended to yield an OD600 of 5 in fresh YPD broth. This is referred to as a high cell density (HCD) culture. […] This is referred to as a low the cell density (LCD) culture. These cultures were incubated at 30° C. with shaking for 30 minutes for an acclimation period. At the end of the 30 minute acclimation period, the OD600 was measured. 5 ml of low or high cell density culture was dispensed to 15 ml conical tubes which contained different concentrations of the alcohol to be tested. A control tube included no alcohol. The tubes were placed in a rotary drum at 30° C. and incubated for 24 hours. The time of addition of cells was referred to as “time 0”. […] Colony forming units (CFUs) were determined on YPD plates at time 0 for the control and at 24 hours for each of the cultures, including the control culture, using standard microbiological methods. […] Colonies were counted after 48 hours, and CFUs/ml were calculated. At time 0, the low cell density cultures had about 4.8×10^5 CFUs/ml, and the high cell density cultures had about 5.4×10^7 CFUs/ml.

[2] = tested on: Saccharomyces cerevisiae PNY0614; experiment: Glucose consumption rate in high cell density culture in YPD; format: cell-based; conditions: about 3.9 gdcw/L
Excerpt: S. cerevisiae strains used were PNY0569 CEN.PK122 (MATa MAL2-8c SUC2/MATalpha MAL2-8c SUC2) and PNY0571 (CEN.PK 113-7D MATa MAL2-8c SUC2), obtained from Centraalbureau voor Schimmelcultures, Fungal and Yeast Collection (Netherlands) as well as PNY0602 and PNY0614. PNY0602 and PNY0614 were isolated from a mutagenized culture of PNY0571. PNY0571 (CEN.PK 113-7D) was subjected to 10 rounds of chemical mutagenesis with N-methyl-N′-nitro-N-nitrosoguanidine (NTG) and ethylmethane sulfonate (EMS) using standard methods (Barbour, L., M. Hanna and W. Xiao. 2006. Mutagenesis, p. 121-127. In W. Xiao (ed.), Yeast Protocols, Second Edition. Humana Press, NJ). Cells were grown overnight in 10 ml of YPD at 30° C. with shaking. The overnight culture was centrifuged, and the pellet was resuspended in 50 mM potassium phosphate buffer, pH 7.0. The cells were again centrifuged and resuspended in 10 ml of the same buffer. A portion of the resuspended cells (2.5 ml) was transferred to a plastic 15 ml screw cap centrifuge tube, and the cells were treated with NTG (10 μg/ml final concentration) or EMS (3% w/v) for 40 minutes at 30° C. without shaking. The mutagen was inactivated by addition of an equal volume of filter sterilized 10% (w/v) sodium thiosulfate. The treated cells were centrifuged and resuspended in water two times. The treatment protocol involved repeated cycles of treating yeast cells with one of the mutagens (e.g., NTG), allowing the surviving cells to grow out overnight in YPD with 1% isobutanol, and then treating the overnight culture with the other mutagen (e.g., EMS). After the fifth cycle (i.e., a total of ten treatments with mutagen), cells were screened for isobutanol tolerance. PNY0602 was isolated after prolonged (24 h) exposure to 3.0% isobutanol. PNY0614 was isolated after 5 cycles of repeated freezing and thawing of the mutagenized culture by resuspending mutagenized cells in distilled water and transferring the cells to dry-ice ethanol bath and a 37° C. water bath for 20 minutes each.
Glucose consumption rates in the presence of isobutanol in YPD were also determined when the cell concentration was about 8 O.D. (about 3.9 gdcw/L). Saccharomyces cerevisiae strains PNY0571, PNY0602 and PNY0614 were plated from a freezer vial onto YPD agar (Teknova, Hollister, Calif.; Cat. #Y1000) and incubated overnight at 30° C. Cells from the YPD plate were inoculated into a 25 ml pre-culture of YPD broth (Teknova, Hollister, Calif.; Cat. #Y5000) with an initial OD600 of 0.06 to 0.08, and this culture was grown for 7 hours in an air shaker at 30° C. An aliquot of the pre-culture was inoculated into 200 ml of YPD broth with an initial OD600 of 0.06 to 0.08, and this culture was incubated with aeration at 30° C. for approximately 17 hours. The optical density of the culture was determined, the culture was centrifuged and the cells were resuspended in fresh YPD broth to yield an OD600 of 8. At this point, an aliquot of 10 ml of the culture was used for a dry cell weight determination, which gave dry cell weight in the range of 3.89 gdcw/L.
20 ml cultures were transferred to flasks that contained 0.0%, 0.5%, 0.75%, 1.0%, 1.25%, 1.5%, 1.75%, 2.0% and 2.5% isobutanol. Time of addition of cells was referred to as 0 hours. At various times samples (500 to 700 ul) were transferred to a tube containing an equal volume of 10% TCA. Samples were centrifuged and glucose determined in the YSI glucose analyzer (YSI 2700 Select).

## CC(C)CO [Isobutanol, isobutanol]
[1]; 1.0% (w/v) alcohol, high cell density OD600 5
  Percent Survival HCD (%): 77.8%
[1]; 1.0% (w/v) alcohol, low cell density OD600 0.05
  Percent Survival LCD (%): 0.6%
[1]; 1.5% (w/v) alcohol, high cell density
  Percent Survival HCD (%): 45.1%
[1]; 1.5% (w/v) alcohol, low cell density
  Percent Survival LCD (%): 0.1%
[1]; 2.5% (w/v) alcohol, high cell density
  Percent Survival HCD (%): <0.001%
[1]; 2.5% (w/v) alcohol, low cell density
  Percent Survival LCD (%): <0.001%
[2]; PNY0614, 0.5% isobutanol
  Glucose consumed per gdcw per hour: 2.9 per gdcw per hour
[2]; PNY0614, 0.75% isobutanol
  Glucose consumed per gdcw per hour: 2.8 per gdcw per hour
[2]; PNY0614, 1% isobutanol
  Glucose consumed per gdcw per hour: 2.6 per gdcw per hour
[2]; PNY0614, 1.5% isobutanol
  Glucose consumed per gdcw per hour: 1.4 per gdcw per hour
[2]; PNY0614, 1.75% isobutanol
  Glucose consumed per gdcw per hour: 1.0 per gdcw per hour
[2]; PNY0614, 2% isobutanol
  Glucose consumed per gdcw per hour: 0.8 per gdcw per hour
[2]; PNY0614, 2.5% isobutanol
  Glucose consumed per gdcw per hour: 0.4 per gdcw per hour
